The subject of data set [1] is A375 cells (parental). Put plainly: Dose-response curves and IC50, PrestoBlue cell viability, 72 h. To be noted: Homo sapiens, A-375, n.e. = did not suppress growth below 50% in the tested concentration range, read-out: Half-maximal inhibitory concentration value (IC50), Mean. The class given is cell-based, human.
For data set [2], the system named is A375-XP cells (Vemurafenib-resistant). The description is as above. To be noted: Homo sapiens, n.e. = did not suppress growth below 50% in the tested concentration range, read-out: Half-maximal inhibitory concentration value (IC50), Mean. The class given is cell-based, human.
Data set [3] relates to A375-GP cells (Dabrafenib-resistant). Described as above. In kind it is cell-based, human. To be noted: Homo sapiens, n.e. = did not suppress growth below 50% in the tested concentration range, read-out: Half-maximal inhibitory concentration value (IC50), Mean.
In data set [4] the test system is NHDF (normal human dermal fibroblasts). Put plainly: Dose-response curves and IC50 in non-cancer cells, cell viability, 72 h. Conditions: for IC50: Homo sapiens, NHDF, read-out: Half-maximal inhibitory concentration (IC50), NHDF Mean. As to the method: (§1) The IC50 values (nM) were calculated as indicated in Methods.
Data set [5] concerns NHEM (normal human epidermal melanocytes). Described as above. The protocol:
as §1

The test system of the next data set is A375 cells. Put plainly: Synergy determination with the Chou-Talalay method (CompuSyn), cell viability 72 h. In kind it is cell-based, human. Conditions: 72 h cell viability, Chou-Talalay / Synergyfinder.
The subject of data set [6] is A375 parental cells expressing iRFP. Put plainly: Long-term inhibitor treatment, iRFP fluorescence proliferation monitoring. The class given is cell-based, human. As to the method: A375 parental and BRAFi-resistant cells, virally transduced with the near-infrared fluorescent protein (iRFP) were seeded at a density of 2500 cells/well in a 24-well plate (Greiner) in at least technical triplicates. Inhibitors, single or in combination, were added at the indicated amounts and replenished every 72 h for a duration of 76 days. To assess whether any remaining cells have become resistant to the treatment and would re-emerge, the drugs were removed and the cells underwent “drug holidays” for an additional 21 days. During the long-term treatment, cell proliferation was monitored bi-weekly on a LI-COR Odyssey Infrared Imaging System (LI-COR Biosciences). Fluorescence intensity was quantified with the Image Studio™ Lite software (LI-COR Biosciences).

Another data set deals with melanoma cell lines. To be noted: several other melanoma cell lines; cited from earlier work.
Data set [7] has as its system 501Mel cells (parental). Put plainly: Kinase inhibitor library screening, PrestoBlue cell viability, 1 or 10 μM, 72 h. Conditions: 501Mel Parental, in %. The procedure, abridged:
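Readout: PrestoBlue signal on a monochromator plate reader, given as percent viability relative to untreated controls. Parental and drug-resistant (Vemurafenib XP, Dabrafenib GP) sublines were tested; at least duplicates per line.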

Data set [8] deals with 501Mel-GP cells (Dabrafenib-resistant). The data set is described as above. Conditions: 501Mel GP, in %.
For data set [9], the system named is 501Mel-XP cells (Vemurafenib-resistant). The data set is described as above. Conditions: 501Mel XP, in %.
Data set [10] relates to A375 cells (parental). The description is as above. To be noted: A375 Parental, in %.
Data set [11] relates to A375-GP cells (Dabrafenib-resistant). Described as above. Conditions: A375 GP, in %.
Data set [12] relates to A375-XP cells (Vemurafenib-resistant). The data set is described as above. To be noted: A375 XP, in %.
The test system of data set [13] is IGR37 cells (parental). The description is as above. Conditions: IGR37 Parental, in %.
Data set [14] has as its system IGR37-GP cells (Dabrafenib-resistant). The data set is described as above. To be noted: IGR37 GP, in %.
Data set [15] relates to IGR37-XP cells (Vemurafenib-resistant). Described as above. Conditions: IGR37 XP, in %.
Data set [16] relates to Tyr15 phosphorylation of CDK1 (P-cdc2). Put plainly: Western blot, phospho-cdc2 (Tyr15). The class given is cell-based, human. To be noted: parental and resistant A375 cells, 3 h treatment. On the technique in general: A western blot detects proteins with antibodies after separation by electrophoresis.
Method: (§2) Cells were seeded at a density of 10^5 cells/well in 24-well plates (Greiner). 24 h post seeding, cells were treated with inhibitors at indicated amounts for 3 h and/or 24 h. […] The following primary antibodies were used: anti-phospho-CHK1 (Ser317) (Cell Signalling Technology, 1:1000), anti-CHK1 (Cell Signalling Technology, 1:1000), anti-phospho-cdc2 (Tyr15) (Cell Signalling Technology, 1:1000), anti-cdc2 (Cell Signalling Technology, 1:1000), anti-PARP (Cell Signalling Technology, 1:1000), anti-cleaved-PARP (Cell Signalling Technology, 1:1000), anti-phospho-Erk (Tyr202/Tyr204) (Cell Signalling Technology, 1:2000), anti-Erk1/2 (Santa Cruz, Erk1 = 1:1000, Erk2 = 1:2000), anti-phospho-Akt (Ser473) (Cell Signalling Technology, 1:1500), anti-Akt1/2 (Santa Cruz, 1:1000), anti-Vinculin (Abcam, 1:1000) and anti-Tubulin (Santa Cruz, 1:5000). HRP-labeled secondary antibodies were purchased from Cell Signaling Technology (Boston, MA).
The subject of a further data set is PARP cleavage. Put plainly: Western blot, PARP cleavage in A375 cells. The class given is cell-based, human. To be noted: A375, A375-XP, A375-GP; 24 h treatment.
Data set [17] has as its system A375 cells (parental sensitive) tumors. Put plainly: In vivo assay, subcutaneous melanoma tumors in NSG mice. To be noted: NSG mice with A375 or A375-XP tumors, 8 days of daily treatment. Details: species or system NOD scid gamma (NSG) mice. As to the method: NOD scid gamma (NSG) mice were bred in-house and experiments were performed according to all applicable laws and regulations, after receiving approval by the institution’s animal experimentation ethics committee and the veterinarian service of the Ministry of Agriculture (Permit Number: 18-MDM-01). Single parental sensitive A375 cells (0.5 × 10^6 cells) and Vemurafenib-resistant A375-XP cells (2 × 10^6 cells) were resuspended in 100 μL of 1:1 mixed serum-free medium and matrigel (BD Biosciences) and injected subcutaneously in 6–8 week-old mice. […] Control mice received the respective vehicle by oral gavage and intraperitoneal injection. […] Statistical analysis was done using a two-way ANOVA followed by post-hoc Tukey’s multiple comparison tests.

Data set [18] concerns IGR37 cells (parental). Put plainly: Dose-response curves and IC50, PrestoBlue cell viability, 72 h. Conditions: Homo sapiens, IGR-37, 72 h, read-out: Half-maximal inhibitory concentration (IC50).
Method: (§3) All inhibitors used in this study were purchased from Selleck Chemicals (Houston, USA). They were dissolved in DMSO to a stock concentration of 10 mM according to the manufacturer’s instructions and stored at − 80 °C. […] Cell viability was measured with the PrestoBlue Cell Viability Reagent (ThermoFisher Scientific) on a CLARIOstar Monochromator microplate reader (BMG Labtech). Using the GraphPad Prism v5.04 software, the half-maximal inhibitor concentration values (IC50) were determined from the curve using the nonlinear log (inhibitor) vs response-variable slope (four parameters) equation. […] The IC50’s were determined for 3 biological replicates and are listed with their standard deviations.
(§4) Values represent the mean of at least three biological replicates; one representative curve of at least 3 biological replicates is depicted. _XP: cells resistant to Vemurafenib (red), _GP: cells resistant to Dabrafenib (green).
Data set [19] concerns IGR37-XP cells (Vemurafenib-resistant). Described as above. Conditions: Homo sapiens, 72 h, read-out: Half-maximal inhibitory concentration (IC50).
Method: as §3, §4
The test system of data set [20] is IGR37-GP cells (Dabrafenib-resistant). Described as above. Conditions: Homo sapiens, 72 h, read-out: Half-maximal inhibitory concentration (IC50).
Method: as §3, §4
Data set [21] relates to 501Mel cells (parental). Described as above. Conditions: Homo sapiens, 72 h, read-out: Half-maximal inhibitory concentration (IC50).
Method: as §3, §4
The subject of data set [22] is 501Mel-XP cells (Vemurafenib-resistant). The data set is described as above. Conditions: Homo sapiens, 72 h, read-out: Half-maximal inhibitory concentration (IC50).
Method: as §3, §4
The subject of data set [23] is 501Mel-GP cells (Dabrafenib-resistant). The description is as above. To be noted: Homo sapiens, 72 h, read-out: Half-maximal inhibitory concentration (IC50).
Method: as §3
The subject of another data set is melanoma tumors. To be noted: cited from earlier work.

Method for PARP cleavage: as §2

In the case of `CO[C@@H](C(=O)N1Cc2n[nH]c(NC(=O)c3ccc(N4CCN(C)CC4)cc3)c2C1)c1ccccc1` [Danusertib], the IC50 was determined as 0.328 µM with A375 cells (parental) [1]; 0.295 µM in data set [2]; 0.257 µM in [3]; 1.17 µM in data set [4]; 0.37 µM in [5] (Homo sapiens, Melanocyte, read-out: Half-maximal inhibitory concentration (IC50), NHEM Mean). In the data set with A375 cells, the “synergistic effects with the BRAF inhibitors Vemurafenib and/or Dabrafenib (in words)” value was “clear synergistic effects”. For the same molecule, the “long-term cell growth under drug until day 76 (in words)” value in data set [6] (drugs replenished every 72 h, indicated concentrations) is “inconsistent”. Moreover, in the data set with melanoma cell lines, the “apoptosis and migration of melanoma cell lines (in words)” value is “induced apoptosis and inhibited migration”.

With `C=CCn1c(=O)c2cnc(Nc3ccc(N4CCN(C)CC4)cc3)nc2n1-c1cccc(C(C)(C)O)n1` [MK-1775, reference compound], the “cell viability (kinase inhibitor library screening)” value with 501Mel cells (parental) [7] (1μΜ) is reported as 35.1; in the data set on 501Mel cells (parental) [7] (10μΜ), 24.2; in data set [8] (1μΜ), 27.8; in data set [8] (10μΜ), 24.0; in data set [9] (1μΜ), 11.1; in [9] (10μΜ) it was 6.5. The “cell viability (kinase inhibitor library screening)” value in the data set on A375 cells (parental) [10] (1μΜ) is 25.2; in the data set with A375 cells (parental) [10] (10μΜ), 4.9; in [11] (1μΜ), 17.5; in [11] (10μΜ), 1.8; in [12] (1μΜ), 43.8; in data set [12] (10μΜ) it was 8.7. Further, the “cell viability (kinase inhibitor library screening)” value in the data set on IGR37 cells (parental) [13] (1μΜ) amounted to 20.4; in the data set on IGR37 cells (parental) [13] (10μΜ) it was 9.8; in data set [14] (1μΜ), 46.6; in data set [14] (10μΜ), 41.7; in [15] (1μΜ) it was 45.0; in data set [15] (10μΜ) it was 36.2. For the same molecule, the IC50 in the data set with A375 cells (parental) [1] amounted to 0.388 µM; in [2] it was 0.809 µM; in data set [3], 0.325 µM; in the data set with IGR37 cells (parental) [18], 0.286 µM; in [19] it was 0.201 µM; in data set [20], 0.289 µM. Also, the figures for the IC50 (with 501Mel cells (parental) [21]; in data set [22]; in [23]) were 0.257 µM, 0.22 µM and 0.289 µM, respectively. For the same molecule, the “effect on healthy cells, cell viability (in words)” value in data set [4] (fibroblasts (NHDF)) and in data set [5] (melanocytes (NHEM)) was “very modest effects” throughout. In the data set on A375 cells, the “synergistic effects with the BRAF inhibitors Vemurafenib and/or Dabrafenib (in words)” value is “clear synergistic effects”. The “inhibitory CDK1 (cdc2) phosphorylation level (in words)” value in [16] is given as “reduced levels of inhibitory CDK1 (cdc2) phosphorylation”. Moreover, the “Cleavage of PARP (in words)” value in the data set on PARP cleavage is given as “induced”. For the same molecule, the “body weight and side effects during treatment (in words)” value in [17] was “did not lose weight”.

For `CC[C@@H]1C(=O)N(C)c2cnc(Nc3ccc(C(=O)N[C@H]4CC[C@H](N5CCN(CC6CC6)CC5)CC4)cc3OC)nc2N1C(C)C` [Volasertib], the IC50 came to 0.021 µM in the data set with A375 cells (parental) [1], 0.021 µM in data set [2], 0.015 µM in [3] and 0.075 µM in [4]. Further, in the data set on A375 cells, the “synergistic effects with the BRAF inhibitors Vemurafenib and/or Dabrafenib (in words)” value is reported as “synergistic effects only with Dabrafenib”. For the same molecule, the “regrowth after removal of drugs (after day 76, by day 97) (in words)” value in data set [6] is recorded as “had started to grow back”. For the same molecule, the “long-term cell growth under drug until day 76 (in words)” value in data set [6] (40 nM (also 20 nM, data not shown)) is reported as “killed all cells”. In the data set on melanoma tumors, the “effect on melanoma tumors in vivo (in words)” value is “delay growth of melanoma tumors and to cause regression by inducing apoptosis in vivo”.

The record behind these values is publication PMC6364417, “Kinase inhibitor library screening identifies synergistic drug combinations effective in sensitive and resistant melanoma cells” (Journal of Experimental & Clinical Cancer Research : CR, 2019).
